Measured values taken from patent US20230277630A1, “METHODS AND COMPOSITIONS FOR TREATING AMYOTROPHIC LATERAL SCLEROSIS” (Amylyx Pharmaceuticals, Inc., priority 2022, published 2023).
Read-outs that look alike come from different tables or passages of the source.

Columns and labels:
hrCYP1A2 = target: T1, hrCYP1A2 (Homo sapiens, UniProt P05177); settings: recombinant enzyme, 5 μM, pH 7.4
T1 sequence (P05177 1-516): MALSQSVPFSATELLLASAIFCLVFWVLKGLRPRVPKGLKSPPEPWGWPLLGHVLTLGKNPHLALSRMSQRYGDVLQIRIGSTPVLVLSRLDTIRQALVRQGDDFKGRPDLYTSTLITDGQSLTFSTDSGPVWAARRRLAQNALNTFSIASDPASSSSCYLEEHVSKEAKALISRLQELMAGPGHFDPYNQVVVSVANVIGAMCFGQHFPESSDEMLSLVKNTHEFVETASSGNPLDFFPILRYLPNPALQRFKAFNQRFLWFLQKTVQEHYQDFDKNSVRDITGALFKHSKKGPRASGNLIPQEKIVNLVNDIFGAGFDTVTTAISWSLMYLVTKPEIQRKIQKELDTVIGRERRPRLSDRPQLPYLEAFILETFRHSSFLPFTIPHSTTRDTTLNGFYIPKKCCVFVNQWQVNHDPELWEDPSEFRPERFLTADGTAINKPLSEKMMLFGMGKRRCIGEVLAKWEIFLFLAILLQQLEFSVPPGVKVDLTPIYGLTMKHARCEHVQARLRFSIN
Description: (§1) The reaction was initiated by the addition of NADPH, followed by incubation at 37° C.
(§2) % Remaining of TA=100×At/A0
(§3) Where, At is the peak area ratio of TA to internal standard (IS) at time t, A0 is the average peak area ratio of TA to IS at time zero.

hrCYP2B6 = target: T2, hrCYP2B6 (Homo sapiens, UniProt P20813); settings: recombinant enzyme, 5 μM, pH 7.4
T2 sequence (P20813 1-491): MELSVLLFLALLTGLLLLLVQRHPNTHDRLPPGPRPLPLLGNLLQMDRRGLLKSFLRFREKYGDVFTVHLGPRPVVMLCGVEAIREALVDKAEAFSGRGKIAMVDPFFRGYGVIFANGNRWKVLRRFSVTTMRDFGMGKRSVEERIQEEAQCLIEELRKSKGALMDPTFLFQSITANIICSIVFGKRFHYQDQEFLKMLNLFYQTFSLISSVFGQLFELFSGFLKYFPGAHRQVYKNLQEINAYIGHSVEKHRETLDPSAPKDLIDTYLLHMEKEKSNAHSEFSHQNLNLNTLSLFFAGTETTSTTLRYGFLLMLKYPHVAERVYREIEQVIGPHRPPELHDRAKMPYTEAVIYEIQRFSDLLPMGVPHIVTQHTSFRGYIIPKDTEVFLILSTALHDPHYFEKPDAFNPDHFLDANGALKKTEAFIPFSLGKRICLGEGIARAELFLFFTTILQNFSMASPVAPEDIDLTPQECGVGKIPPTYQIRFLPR
Description: as §1, §2, §3

hrCYP2C19 = hrCYP2C19 (Homo sapiens, UniProt P33261); settings: recombinant enzyme, 5 μM, pH 7.4
hrCYP2C19, sequence (P33261 whole entry): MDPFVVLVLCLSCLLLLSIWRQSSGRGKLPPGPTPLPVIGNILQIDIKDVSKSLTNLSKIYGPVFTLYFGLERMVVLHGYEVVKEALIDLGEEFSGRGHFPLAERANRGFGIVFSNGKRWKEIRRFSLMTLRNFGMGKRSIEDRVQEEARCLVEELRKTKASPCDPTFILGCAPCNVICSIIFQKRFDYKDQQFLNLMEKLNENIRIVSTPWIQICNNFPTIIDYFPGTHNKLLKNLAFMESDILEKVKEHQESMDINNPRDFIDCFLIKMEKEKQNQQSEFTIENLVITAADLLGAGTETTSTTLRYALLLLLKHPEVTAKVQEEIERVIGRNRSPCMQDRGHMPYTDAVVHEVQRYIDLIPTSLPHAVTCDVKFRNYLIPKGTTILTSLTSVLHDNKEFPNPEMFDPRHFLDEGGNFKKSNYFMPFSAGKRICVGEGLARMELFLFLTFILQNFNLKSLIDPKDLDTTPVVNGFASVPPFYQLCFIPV
Description: as §1, §2, §3

hrCYP2C8 = target: T3, hrCYP2C8 (Homo sapiens, UniProt P10632); settings: recombinant enzyme, 5 μM, pH 7.4
T3 sequence (P10632 1-490): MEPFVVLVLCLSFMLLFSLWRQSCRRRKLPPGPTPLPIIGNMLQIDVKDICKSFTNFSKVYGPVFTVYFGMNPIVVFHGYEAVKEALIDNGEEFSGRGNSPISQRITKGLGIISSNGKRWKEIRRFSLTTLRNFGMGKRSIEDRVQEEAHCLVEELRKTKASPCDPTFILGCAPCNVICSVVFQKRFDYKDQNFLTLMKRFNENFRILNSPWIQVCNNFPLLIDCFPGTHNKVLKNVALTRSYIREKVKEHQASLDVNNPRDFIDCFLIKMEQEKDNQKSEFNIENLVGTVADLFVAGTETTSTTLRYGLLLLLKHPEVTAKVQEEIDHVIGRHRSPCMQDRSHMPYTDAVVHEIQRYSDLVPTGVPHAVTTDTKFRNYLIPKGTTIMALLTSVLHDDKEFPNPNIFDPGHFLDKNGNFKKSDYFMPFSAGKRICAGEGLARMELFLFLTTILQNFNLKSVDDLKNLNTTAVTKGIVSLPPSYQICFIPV
Description: as §1, §2, §3

hrCYP2C9 = hrCYP2C9 (Homo sapiens, UniProt P11712); settings: recombinant enzyme, 5 μM, pH 7.4
hrCYP2C9, sequence (P11712 whole entry): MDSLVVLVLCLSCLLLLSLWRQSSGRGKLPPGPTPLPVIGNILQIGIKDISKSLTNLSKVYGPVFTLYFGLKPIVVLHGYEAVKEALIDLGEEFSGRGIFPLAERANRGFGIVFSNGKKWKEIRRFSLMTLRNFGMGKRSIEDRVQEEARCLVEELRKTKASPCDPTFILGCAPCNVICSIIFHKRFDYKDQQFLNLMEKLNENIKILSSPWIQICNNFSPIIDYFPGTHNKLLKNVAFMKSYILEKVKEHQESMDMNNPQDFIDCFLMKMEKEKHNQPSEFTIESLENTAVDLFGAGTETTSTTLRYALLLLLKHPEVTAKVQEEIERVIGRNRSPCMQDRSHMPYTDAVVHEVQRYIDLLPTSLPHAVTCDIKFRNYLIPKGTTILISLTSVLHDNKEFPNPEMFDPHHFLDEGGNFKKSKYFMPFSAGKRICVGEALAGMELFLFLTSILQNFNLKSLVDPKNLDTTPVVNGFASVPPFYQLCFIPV
Description: as §1, §2, §3

hrCYP2D6 = hrCYP2D6 (Homo sapiens, UniProt P10635); settings: recombinant enzyme, 5 μM, pH 7.4
hrCYP2D6, sequence (P10635 whole entry): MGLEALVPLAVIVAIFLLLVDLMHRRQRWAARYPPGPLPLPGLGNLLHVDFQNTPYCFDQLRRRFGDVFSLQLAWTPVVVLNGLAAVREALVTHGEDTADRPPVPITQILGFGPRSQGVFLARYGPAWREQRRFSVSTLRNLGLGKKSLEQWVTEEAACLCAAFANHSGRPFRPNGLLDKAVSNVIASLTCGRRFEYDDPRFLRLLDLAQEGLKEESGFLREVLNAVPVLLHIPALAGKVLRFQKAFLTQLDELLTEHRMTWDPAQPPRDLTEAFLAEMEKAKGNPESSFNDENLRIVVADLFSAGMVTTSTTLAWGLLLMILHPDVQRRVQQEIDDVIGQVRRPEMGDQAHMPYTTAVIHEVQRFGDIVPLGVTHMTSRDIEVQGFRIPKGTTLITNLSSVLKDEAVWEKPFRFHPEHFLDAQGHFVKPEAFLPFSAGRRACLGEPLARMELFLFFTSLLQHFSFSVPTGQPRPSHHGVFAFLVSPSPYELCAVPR
Description: as §1, §2, §3

hrCYP3A4 = hrCYP3A4 (Homo sapiens, UniProt P08684); settings: recombinant enzyme, 5 μM, pH 7.4
hrCYP3A4, sequence (P08684 whole entry): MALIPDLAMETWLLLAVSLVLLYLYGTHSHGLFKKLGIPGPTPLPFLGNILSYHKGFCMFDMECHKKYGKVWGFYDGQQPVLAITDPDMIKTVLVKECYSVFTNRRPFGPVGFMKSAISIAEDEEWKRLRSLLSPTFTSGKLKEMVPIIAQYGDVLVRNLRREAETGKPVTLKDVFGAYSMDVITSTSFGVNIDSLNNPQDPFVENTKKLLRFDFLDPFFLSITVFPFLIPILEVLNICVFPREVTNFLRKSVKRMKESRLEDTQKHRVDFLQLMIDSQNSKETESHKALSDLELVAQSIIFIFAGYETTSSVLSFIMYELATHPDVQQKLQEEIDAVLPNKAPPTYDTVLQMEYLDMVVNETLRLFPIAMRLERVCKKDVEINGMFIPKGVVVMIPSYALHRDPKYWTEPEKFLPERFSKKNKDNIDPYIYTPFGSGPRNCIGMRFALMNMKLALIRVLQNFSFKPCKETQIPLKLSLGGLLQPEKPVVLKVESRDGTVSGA
Description: as §1, §2, §3

[1] = male, CD (Sprague-Dawley) IGS, rat, in vivo
Description: This study was comprised of one group of three male CD® (Sprague-Dawley) IGS rats.
Clinical observations were recorded approximately 1 hour post-dose on Days 1-4 and twice on Day 5, once post-AMX0035 administration and once post-TDF administration. Body weight measurements were recorded prior to randomization and then daily through the end of the study.
Nominal dose values and nominal sampling times were used for calculations. Any concentrations reported as BLQ (<50 ng/mL) were set equal to zero. […] Pharmacokinetic analysis included the determination of Cmax, Tmax, AUClast, Tlast, and AUC0-24.

C[C@H](CCC(=O)NCCS(=O)(=O)O)[C@H]1CC[C@H]2[C@@H]3[C@@H](O)C[C@@H]4C[C@H](O)CC[C@]4(C)[C@H]3CC[C@]12C [TUDCA, tauroursodeoxycholic acid]
% Remaining of TA (hrCYP1A2; 0 h): 100% | % Remaining of TA (hrCYP1A2; 5 min): 98.0% | % Remaining of TA (hrCYP1A2; 10 min): 101% | % Remaining of TA (hrCYP1A2; 20 min): 99.9% | % Remaining of TA (hrCYP1A2; 0.5 h): 103% | % Remaining of TA (hrCYP1A2; 1 h): 90.5% | % remained after 60 minutes of incubation (hrCYP1A2; 1 h): greater than 90% | % Remaining of TA (hrCYP2B6; 0 h): 100% | % Remaining of TA (hrCYP2B6; 5 min): 97.6% | % Remaining of TA (hrCYP2B6; 10 min): 97.0% | % Remaining of TA (hrCYP2B6; 20 min): 99.3% | % Remaining of TA (hrCYP2B6; 0.5 h): 99.7% | % Remaining of TA (hrCYP2B6; 1 h): 101% | % remained after 60 minutes of incubation (hrCYP2B6; 1 h): greater than 90% | % Remaining of TA (hrCYP2C19; 0 h): 100% | % Remaining of TA (hrCYP2C19; 5 min): 96.1% | % Remaining of TA (hrCYP2C19; 10 min): 98.7% | % Remaining of TA (hrCYP2C19; 20 min): 94.8% | % Remaining of TA (hrCYP2C19; 0.5 h): 95.1% | % remained after 60 minutes of incubation (hrCYP2C19; 1 h): greater than 90% | % Remaining of TA (hrCYP2C8; 0 h): 100% | % Remaining of TA (hrCYP2C8; 10 min): 99.3% | % Remaining of TA (hrCYP2C8; 20 min): 101% | % Remaining of TA (hrCYP2C8; 0.5 h): 101% | % Remaining of TA (hrCYP2C8; 1 h): 99.8% | % remained after 60 minutes of incubation (hrCYP2C8; 1 h): greater than 90% | % Remaining of TA (hrCYP2C9; 0 h): 100% | % Remaining of TA (hrCYP2C9; 5 min): 96.0% | % Remaining of TA (hrCYP2C9; 10 min): 98.8% | % Remaining of TA (hrCYP2C9; 20 min): 98.5% | % Remaining of TA (hrCYP2C9; 0.5 h): 97.8% | % Remaining of TA (hrCYP2C9; 1 h): 90.3% | % remained after 60 minutes of incubation (hrCYP2C9; 1 h): greater than 90% | % Remaining of TA (hrCYP2D6; 0 h): 100% | % Remaining of TA (hrCYP2D6; 5 min): 98.4% | % Remaining of TA (hrCYP2D6; 10 min): 97.8% | % Remaining of TA (hrCYP2D6; 20 min): 97.0% | % Remaining of TA (hrCYP2D6; 0.5 h): 99.2% | % Remaining of TA (hrCYP2D6; 1 h): 98.6% | % remained after 60 minutes of incubation (hrCYP2D6; 1 h): greater than 90% | % Remaining of TA (hrCYP3A4; 0 h): 100% | % Remaining of TA (hrCYP3A4; 5 min): 97.1% | % Remaining of TA (hrCYP3A4; 10 min): 92.1% | % Remaining of TA (hrCYP3A4; 20 min): 91.4% | % Remaining of TA (hrCYP3A4; 0.5 h): 90.9% | % Remaining of TA (hrCYP3A4; 1 h): 91.1% | % remained after 60 minutes of incubation (hrCYP3A4; 1 h): greater than 90% | mean endogenous plasma levels over the 24 hour time course [1]: 130 to 222 ng/mL

O=C(O)CCCc1ccccc1 [PB, sodium phenylbutyrate]
% Remaining of TA (hrCYP1A2; 0 h): 100% | % Remaining of TA (hrCYP1A2; 5 min): 98.3% | % Remaining of TA (hrCYP1A2; 20 min): 99.9% | % Remaining of TA (hrCYP1A2; 0.5 h): 101% | % Remaining of TA (hrCYP1A2; 1 h): 95.1% | % remained after 60 minutes of incubation (hrCYP1A2; 1 h): greater than 90% | % remained after 60 minutes of incubation (hrCYP2B6; 1 h): greater than 90% | % Remaining of TA (hrCYP2C19; 0 h): 100% | % Remaining of TA (hrCYP2C19; 5 min): 97.4% | % Remaining of TA (hrCYP2C19; 10 min): 101% | % Remaining of TA (hrCYP2C19; 20 min): 99.7% | % Remaining of TA (hrCYP2C19; 0.5 h): 97.5% | % Remaining of TA (hrCYP2C19; 1 h): 99.8% | % remained after 60 minutes of incubation (hrCYP2C19; 1 h): greater than 90% | % remained after 60 minutes of incubation (hrCYP2C8; 1 h): greater than 90% | % Remaining of TA (hrCYP2C9; 0 h): 100% | % Remaining of TA (hrCYP2C9; 20 min): 99.5% | % Remaining of TA (hrCYP2C9; 1 h): 98.0% | % remained after 60 minutes of incubation (hrCYP2C9; 1 h): greater than 90% | % Remaining of TA (hrCYP2D6; 0 h): 100% | % Remaining of TA (hrCYP2D6; 5 min): 99.9% | % Remaining of TA (hrCYP2D6; 10 min): 96.7% | % Remaining of TA (hrCYP2D6; 20 min): 97.6% | % Remaining of TA (hrCYP2D6; 0.5 h): 101% | % Remaining of TA (hrCYP2D6; 1 h): 100% | % remained after 60 minutes of incubation (hrCYP2D6; 1 h): greater than 90% | % Remaining of TA (hrCYP3A4; 0 h): 100% | % Remaining of TA (hrCYP3A4; 5 min): 100% | % Remaining of TA (hrCYP3A4; 10 min): 97.9% | % Remaining of TA (hrCYP3A4; 20 min): 100% | % Remaining of TA (hrCYP3A4; 0.5 h): 98.1% | % remained after 60 minutes of incubation (hrCYP3A4; 1 h): greater than 90% | plasma concentrations remained quantifiable through [1]: 4 h
